Laboratory results from patent US8871741B2, “Inhibition of TNF-α induced activation of NFKB by pentosan polysulfate” (Icahn School of Medicine at Mount Sinai, priority 2010, dated 2014).

Key:
[1] = tested on: macrophages (F4/80); test: F4/80 immunostaining for macrophage infiltration in kidney; assay type: in vivo, mouse; conditions: PPS treated 22 month-old diabetic mice
Source text: (§1) Paraffin sections from non-diabetic and diabetic mice were deparaffinized prior to staining for apoptosis, makers for inflammation such as macrophages (F4/80, 1:100, Caltag Laboratories, Burlingame, Calif.) and phosphorylated NF-κB (p65 (Ser276), 1:25, Cell Signaling Technology, Inc, Danvers, Mass.), markers for oxidative stress, i.e., nitrotyrosine (1:140, Upstate Biotechnology Inc, Billerica, Mass.) and malondialdehyde (MDA, 1:100, Alpha Diagnostic International Inc, San Antonio, Tex.), and markers for endoplasmic reticulum (ER) stress, i.e., phosphorylated pancreatic ER kinase (PERK, 1:5, Santa Cruz Biotechnology, Santa Cruz, Calif.), and phosphorylated eukaryotic initiation factor 2α (eIF2α, 1:50, Stressgen Bioreagents Corp, Norwalk, Conn.).
(§2) Stained sections were examined under light microscopy (Zeiss Axioskop, Germany). The cortical area of the kidney was digitized under ×10 objective low power with a Sony 3CCD color video camera and a meta imaging series software (Molecular Devices, Downingtown, Pa.). The area of positively stained tubules and glomeruli was measured and expressed as the percentage of total cortical area. The intensity of the staining was also assessed using the color differentiation program.

[2] = tested on: 22 month-old diabetic C57B6 mice; test: Diabetic nephropathy in aged streptozotocin-diabetic C57B6 mice (albuminuria, renal histology, morphometry, serum chemistry); assay type: in vivo, mouse
Method: 4 and 16-17 month-old female C57B6 mice were obtained from National Institute on Aging and were injected with streptozotocin to induce diabetes. Mice were given 50 μg/g of streptozotocin in every three days, for a total of 5-8 injections. A total of 250-400 μg/g of streptozotocin was sufficient in most of mice to induce stable hyperglycemia (≧250 mg/dL). The streptozotocin dose required to establish stable diabetes was similar between […] and 4 month-old mice. There was less than 10% of mortality in both age groups of diabetic mice with this streptozotocin protocol. Dead mice were excluded from further study. Mice with stable diabetes at 5 or 18 months of age were selected for randomization. Female C57B6 mice were chosen as the onset and nature of renal lesions in aging was documented by the inventors herein These mice have irregular, lengthened estrous cycles around 10 to 14 months of age and the cycles usually cease at 18 months of age. […] 18 month-old diabetic mice were randomly divided into PPS treated (n=10, PPS 25 mg/kg/day in drinking water) and control (n=11) groups. No PPS treatment was given to 5 month-old diabetic mice. Both age groups of diabetic mice were followed for 4 months without insulin treatment. Body weight and blood glucose levels were monitored weekly. Urine albumin excretion was measured bi-weekly using an ELISA kit (Bethyl Laboratory Inc, Houston, Tex., USA), as previously described (Zheng F, et al. Am J Pathol 2003, 162:1339-1348). Urine creatinine levels were measured in the same samples and the urine albumin excretion rate was expressed as the ratio of albumin to creatinine Blood urea nitrogen (BUN) levels and serum creatinine levels were examined at sacrifice. High-performance liquid chromatography (HPLC) was applied for determining serum creatinine levels using the method described by Yuen et al. (Am J Physiol Renal Physiol 2004, 286:F1116-1119).
Mice were sacrificed 4 months after stable hyperglycemia was established. Kidneys were perfused with a saline solution and subsequently one kidney was perfusion-fixed in situ with 4% paraformaldehyde for histologic studies. The tissues were embedded in glycol methacrylate or low melting paraffin, and stained with periodic acid Schiff (PAS) and Masson's Trichrome. Tissues were also postfixed for 1 hour in 1.0% osmium tetroxide, prestained in 1.25% uranyl acetate for 1 hour, dehydrated through a series of graded alcohol solutions, and embedded in EPON epoxy resin for electron microscopy. The glomerular volume and mesangial area were determined by examining plastic embedded sections using a digitizing tablet and video camera. The relative mesangial area was expressed as mesangial/glomerular surface area. Glomerular cell number was determined by counting the nuclear number in at least 30 glomeruli of each section. The glomerular basement membrane thickness was measured by the orthogonal intercept method on electron microscopic images. To determine the number of glomerular fenestrae, the length of was fenestrated or unfenestrated glomerular capillary endothelial cytoplasm was measured. Fenestrated endothelial cell cytoplasm was generally thin whereas the thickness of the unfenestrated endothelial cell cytoplasm was twice or more increased. Tubulointerstitial lesions were scored from 0 to 4 (0, no changes; 1+, changes affecting <25% of the sample; 2+, changes affecting 25 to 50% of the sample; 3+, changes affecting 50 to 75% of the sample; 4+, changes affecting 75 to 100% of the sample) based on tubular atrophy, increase in the thickness of basement membranes and interstitial area, and clusters of inflammatory cells.

[3] = Plasma lipid and lipoprotein analyses in WHHL rabbits; assay type: in vivo, rabbit; conditions: for Free cholesterol / Phospholipids / Total cholesterol / Triglycerides: mean ± SEM, 5 animals
Method: Blood was drawn from rabbits after a 12-hour fast into tubes containing EDTA at the beginning of the study, every two weeks during treatment with the atherogenic diet, and at the end of the study. The total cholesterol and triglyceride concentrations (Sigma) as well as unesterified cholesterol and phospholipids (Wako Chemicals, Richmond, Va.) were determined on plasma samples using enzymatic methods on a Hitachi 911 Autoanalyzer (Boehringer Mannheim). Post-heparin hepatic lipase activity was determined as described (Iverius P H, Brunzell J D. Am J Physiol 1985; 249: E107-E114).

[4] = tested on: WHHL rabbits; conditions: rabbit, in vivo, po
Method: 3-month-old female WHHL rabbits, obtained from the Institute for Experimental Animals, Kobe University School of Medicine (Shiomi M, et al., Arterioscler Thromb 1994; 14: 931-937), were fed a standard diet supplemented with 0.5% cholesterol for 45 days. […] Twenty rabbits with established lesions were randomized into two groups, one (PPS group) receiving PPS (30 mg/kg BW daily) added to the drinking water, and the other (Control group) receiving tap water for the next 30 days. […] After 30 days, the rabbits were anesthetized with ketamine hydrochloride and xylazine (60 mg and 6 mg/kg BW, respectively), and exsanguinated. Five from each group were perfusion-fixed with 4% phosphate-buffered formaldehyde solution through the femoral vein.

[5] = tested on: phosphorylated NF-κB (p65 (Ser276)); test: Immunostaining for nuclear phosphorylated NF-κB in kidney; assay type: in vivo, mouse; conditions: PPS treated 22 month-old diabetic kidney
Source text: as §1, §2

[6] = 22 month-old diabetic mice treated with PPS, n = 10, at sacrifice, mean±SD
[7] = 22 month-old diabetic mice, PPS 25 mg/kg/day in drinking water, 4 months
[8] = morphometric analysis, PPS treated versus untreated 22 month-old diabetic mice
[9] = 45 days HC-diet, PPS group before start of PPS
[10] = 75 days HC-diet, PPS in drinking water for the last 30 days
[11] = Baseline (3 months of age), PPS group before treatment

bleeding [4]: not observed
Substance: pentosan polysulfate [PPS]
macrophage infiltration in kidney (F4/80 immunostaining) [1]: largely prevented
BUN [2, 6]: 21.3 ± 5.6 mg/dL
Scr (serum creatinine) [2, 6]: 0.118 ± 0.02 mg/dL
reduction in tubulointerstitial lesions [2, 7]: ~80%
reduction of the increase in the albumin excretion rate [2, 7]: about 50%
reduction of glomerular endothelial fenestrations ([2]; morphometric analysis, PPS treated 22 month-old diabetic mice): largely prevented
glomerular basement membrane width [2, 8]: decreased
mesangial area [2, 8]: decreased
Free cholesterol [3, 9]: 1038.52 ± 128.80 mg/dL
Phospholipids [3, 9]: 1241.09 ± 142.75 mg/dL
Total cholesterol [3, 9]: 2133.28 ± 85.04 mg/dL
Triglycerides [3, 9]: 331.28 ± 86.61 mg/dL
Free cholesterol [3, 10]: 785.46 ± 93.22 mg/dL
Phospholipids [3, 10]: 878.17 ± 107.98 mg/dL
Total cholesterol [3, 10]: 1565.40 ± 212.07 mg/dL
Triglycerides [3, 10]: 184.10 ± 30.19 mg/dL
Free cholesterol [3, 11]: 282.92 ± 13.03 mg/dL
Phospholipids [3, 11]: 574.59 ± 26.44 mg/dL
Total cholesterol [3, 11]: 901.18 ± 50.30 mg/dL
Triglycerides [3, 11]: 762.91 ± 72.13 mg/dL
plasma lipid levels after 75 days of HC-diet versus 45 days ([3]; PPS-treated WHHL rabbits, a trend towards reduction was observed): not significantly different
number of nuclei stained positively for phosphorylated NF-κB (p65 (Ser276)) [5]: noticeably reduced
